{"source": "ChEMBL document CHEMBL1201862", "about": "“PubChem BioAssay data set” (2004)", "key": {"[1]": {"assay": "off-target signal loss in HeLa-CEM21 co-culture – HeLa F-luc CTL cells, cherry-picked, counter-screen for HIV-1 Env fusion inhibitor project, dose response (AID 652040);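 further: potency for signal decrease marking cytotoxic or nonspecific inhibition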", "format": "functional, cell-based"}, "[2]": {"assay": "HIV-1 AD8 envelope cell-cell fusion blockers – cherry-pick, dose response (AID 652062);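 further: potency is for inhibitors of fusion seen as a drop in luminescence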", "format": "functional, cell-based"}, "[3]": {"assay": "fluconazole-exposed Candida albicans growth modulators – fluorescence, retest, confirmation (AID 2467)", "format": "functional, cell-based"}, "[4]": {"assay": "blockers of HIV-1 ZM109 envelope-driven cell-cell fusion – HeLa effector, CEM target cells, luciferase, cherry-pick, dose response (AID 652058)", "format": "functional, cell-based"}, "[5]": {"assay": "blockers of HIV-1 envelope-mediated cell-cell fusion – cherry-pick, dose response (AID 652057)", "format": "functional, cell-based"}, "[6]": {"assay": "viability loss in CEM21 cells – cell-based, CellTiter-Glo luminescence, cherry-picked, cytotoxicity control for viral fusion inhibitor project, dose response (AID 652042);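 further: potency for signal decrease meaning cytotoxicity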", "format": "functional"}, "[7]": {"assay": "Trypanosoma cruzi growth suppression in host cells – NIH3T3 host cells, beta-gal luminescence, confirmation (AID 2044);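 further: intracellular parasites grown in NIH/3T3 mouse fibroblasts as host cells; luminescent beta-galactosidase reporter signal from transgenic T. cruzi replicating inside host cells; inhibitors lower the luminescence signal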", "format": "functional, cell-based"}, "[8]": {"assay": "NIH-3T3 fibroblast cytotoxicity, dose response, cytotoxicity control, cell-based, fluorescence, Alamar Blue, secondary assay (AID 2327);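 further: NIH-3T3 mouse fibroblasts cultured with fluconazole at 8 µg/mL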", "format": "functional"}, "[9]": {"assay": "NIH3T3 cell viability loss – ATP luminescence, mouse fibroblasts, counter-screen, dose response (AID 2010);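 further: cells exposed to compound for about 90 hours before reading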", "format": "functional, cell-based"}, "Protein RecA": {"molecular_target": "T1, Protein RecA (Mycobacterium tuberculosis, UniProt P9WHJ3)", "T1 sequence (P9WHJ3 whole entry)": "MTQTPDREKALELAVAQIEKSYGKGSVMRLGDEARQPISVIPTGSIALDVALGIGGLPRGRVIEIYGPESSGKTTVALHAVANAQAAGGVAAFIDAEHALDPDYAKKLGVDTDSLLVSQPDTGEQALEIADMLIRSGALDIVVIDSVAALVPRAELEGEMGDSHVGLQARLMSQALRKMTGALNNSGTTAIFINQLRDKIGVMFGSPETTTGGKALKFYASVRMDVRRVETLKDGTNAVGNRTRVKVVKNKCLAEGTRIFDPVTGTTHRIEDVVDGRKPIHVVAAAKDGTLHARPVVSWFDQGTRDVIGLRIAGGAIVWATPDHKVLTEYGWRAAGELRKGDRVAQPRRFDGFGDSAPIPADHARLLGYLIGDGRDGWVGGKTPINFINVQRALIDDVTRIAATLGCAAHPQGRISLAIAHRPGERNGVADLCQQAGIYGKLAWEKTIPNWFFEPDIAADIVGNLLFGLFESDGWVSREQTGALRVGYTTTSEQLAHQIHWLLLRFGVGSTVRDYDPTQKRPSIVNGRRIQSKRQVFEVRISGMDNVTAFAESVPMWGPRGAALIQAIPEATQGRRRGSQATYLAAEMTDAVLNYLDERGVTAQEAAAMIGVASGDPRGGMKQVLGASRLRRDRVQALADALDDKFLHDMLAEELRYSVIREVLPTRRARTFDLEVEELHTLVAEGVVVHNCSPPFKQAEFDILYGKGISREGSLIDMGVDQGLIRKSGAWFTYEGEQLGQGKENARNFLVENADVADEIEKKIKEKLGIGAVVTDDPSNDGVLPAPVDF", "assay": "Fluorescence Cell-Free Homogeneous Dose Retest to Identify Inhibitors of RecA-Intein Splicing Activity. [Related pubchem assays (depositor defined):AID2097, AID2223, AID489010, AID492950]", "format": "functional"}, "[10]": {"molecular_target": "T2, Replicative DNA helicase DnaB (Mycobacterium tuberculosis, UniProt P9WMR3)", "T2 sequence (P9WMR3 whole entry)": "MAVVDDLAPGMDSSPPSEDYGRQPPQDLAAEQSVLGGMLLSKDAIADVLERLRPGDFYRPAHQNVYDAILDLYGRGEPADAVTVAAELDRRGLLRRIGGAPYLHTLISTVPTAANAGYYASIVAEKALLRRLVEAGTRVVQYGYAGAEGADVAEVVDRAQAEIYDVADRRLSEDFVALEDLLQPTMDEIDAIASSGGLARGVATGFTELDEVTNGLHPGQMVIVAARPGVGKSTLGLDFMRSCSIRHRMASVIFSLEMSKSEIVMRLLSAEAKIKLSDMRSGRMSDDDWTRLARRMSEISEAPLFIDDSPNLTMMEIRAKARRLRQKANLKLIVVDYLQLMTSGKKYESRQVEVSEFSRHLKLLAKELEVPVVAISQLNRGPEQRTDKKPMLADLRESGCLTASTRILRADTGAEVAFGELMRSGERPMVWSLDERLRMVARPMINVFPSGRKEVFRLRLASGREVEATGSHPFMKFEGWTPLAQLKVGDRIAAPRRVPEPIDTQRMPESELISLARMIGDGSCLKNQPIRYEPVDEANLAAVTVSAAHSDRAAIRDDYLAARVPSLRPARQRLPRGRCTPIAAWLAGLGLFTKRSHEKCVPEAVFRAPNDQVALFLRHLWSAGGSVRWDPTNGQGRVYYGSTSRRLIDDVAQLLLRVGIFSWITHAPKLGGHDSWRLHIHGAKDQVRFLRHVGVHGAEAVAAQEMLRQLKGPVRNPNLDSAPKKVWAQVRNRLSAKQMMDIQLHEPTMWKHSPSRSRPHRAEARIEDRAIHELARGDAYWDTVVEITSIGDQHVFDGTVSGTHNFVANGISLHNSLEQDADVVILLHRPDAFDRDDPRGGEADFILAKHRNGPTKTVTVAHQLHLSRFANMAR", "assay": "DnaB intein splicing inhibitors, dose response, biochemical, cell-free fluorescence (AID 449749)", "format": "functional"}, "[11]": {"molecular_target": "FAD-linked sulfhydryl oxidase ALR (Homo sapiens, UniProt P55789)", "sequence (P55789 whole entry)": "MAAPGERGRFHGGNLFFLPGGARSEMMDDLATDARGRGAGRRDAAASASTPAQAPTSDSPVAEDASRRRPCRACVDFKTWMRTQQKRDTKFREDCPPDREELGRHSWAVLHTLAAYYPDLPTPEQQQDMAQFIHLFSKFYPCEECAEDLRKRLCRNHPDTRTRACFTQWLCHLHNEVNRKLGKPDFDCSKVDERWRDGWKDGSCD", "assay": "ALR-catalysed DTT oxidation blockers – biochemical, H2O2 detection, luminescence, cherry-pick, dose response (AID 493248)"}, "[12]": {"molecular_target": "ATP-binding cassette sub-family B member 6 (Homo sapiens, UniProt Q9NP58)", "sequence (Q9NP58 whole entry)": "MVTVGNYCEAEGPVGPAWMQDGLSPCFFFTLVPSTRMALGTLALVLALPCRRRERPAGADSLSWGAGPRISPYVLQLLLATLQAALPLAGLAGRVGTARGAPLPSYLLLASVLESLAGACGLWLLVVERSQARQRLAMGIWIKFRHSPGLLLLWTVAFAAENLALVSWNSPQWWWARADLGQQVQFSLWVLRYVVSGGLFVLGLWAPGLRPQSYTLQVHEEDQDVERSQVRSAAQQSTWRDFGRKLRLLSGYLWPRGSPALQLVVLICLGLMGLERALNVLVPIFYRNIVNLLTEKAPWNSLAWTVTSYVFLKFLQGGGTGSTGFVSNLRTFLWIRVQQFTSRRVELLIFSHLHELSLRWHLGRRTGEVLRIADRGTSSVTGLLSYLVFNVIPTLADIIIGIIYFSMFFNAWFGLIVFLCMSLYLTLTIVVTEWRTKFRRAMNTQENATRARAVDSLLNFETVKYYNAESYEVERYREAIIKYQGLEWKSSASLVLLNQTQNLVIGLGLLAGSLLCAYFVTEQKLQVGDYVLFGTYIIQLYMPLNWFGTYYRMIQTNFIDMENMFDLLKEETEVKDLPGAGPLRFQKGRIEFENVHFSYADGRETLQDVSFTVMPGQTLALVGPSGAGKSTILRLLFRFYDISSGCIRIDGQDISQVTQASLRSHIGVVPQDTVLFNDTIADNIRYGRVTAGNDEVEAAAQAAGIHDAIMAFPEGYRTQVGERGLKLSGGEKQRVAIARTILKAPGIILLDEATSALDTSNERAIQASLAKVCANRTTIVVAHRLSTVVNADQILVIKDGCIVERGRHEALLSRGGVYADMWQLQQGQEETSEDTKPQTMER", "assay": "concentration-dependent ABCB6 porphyrin transport blockade – K562-ABCB6 cells, flow cytometry, cherry pick 1, dose response (AID 623955)", "format": "functional", "conditions": "read-out: EC50_MICROM"}, "[13]": {"molecular_target": "Dual specificity protein phosphatase 3 (Homo sapiens, UniProt P51452)", "sequence (P51452 whole entry)": "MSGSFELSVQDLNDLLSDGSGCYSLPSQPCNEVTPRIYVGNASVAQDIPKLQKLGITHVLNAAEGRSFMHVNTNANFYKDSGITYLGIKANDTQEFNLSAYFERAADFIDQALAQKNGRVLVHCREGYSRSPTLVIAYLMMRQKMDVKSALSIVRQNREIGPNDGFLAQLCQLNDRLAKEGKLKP", "assay": "VHR phosphatase inhibition, dose response, selectivity assay for STEP inhibitor project, biochemical (AID 602374)", "format": "functional", "conditions": "read-out: IC50_Mean"}, "[14]": {"molecular_target": "Tyrosine-protein phosphatase non-receptor type 11 (Homo sapiens, UniProt Q06124)", "sequence (Q06124 whole entry)": "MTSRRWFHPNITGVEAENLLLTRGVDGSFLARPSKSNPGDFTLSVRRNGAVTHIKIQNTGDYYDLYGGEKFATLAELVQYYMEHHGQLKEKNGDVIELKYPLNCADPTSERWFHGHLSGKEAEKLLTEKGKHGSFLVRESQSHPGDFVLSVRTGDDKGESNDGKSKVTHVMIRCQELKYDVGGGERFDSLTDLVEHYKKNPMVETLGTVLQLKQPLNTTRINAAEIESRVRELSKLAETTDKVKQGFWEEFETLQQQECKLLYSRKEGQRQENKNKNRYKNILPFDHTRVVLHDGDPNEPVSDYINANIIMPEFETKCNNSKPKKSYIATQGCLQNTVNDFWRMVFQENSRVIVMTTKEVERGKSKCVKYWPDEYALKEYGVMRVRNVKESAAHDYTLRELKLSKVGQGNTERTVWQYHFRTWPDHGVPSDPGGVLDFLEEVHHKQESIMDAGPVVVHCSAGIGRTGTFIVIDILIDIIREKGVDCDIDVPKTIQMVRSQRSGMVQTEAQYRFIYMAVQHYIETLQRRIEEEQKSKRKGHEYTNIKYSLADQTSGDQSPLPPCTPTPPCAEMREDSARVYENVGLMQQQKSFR", "assay": "PTPN11 enzyme inhibitors – biochemical, selectivity assay for STEP inhibitor project, dose response (AID 602367)", "format": "functional", "conditions": "read-out: IC50_Mean"}, "[15]": {"molecular_target": "Tyrosine-protein phosphatase non-receptor type 5 (Homo sapiens, UniProt P54829)", "sequence (P54829 whole entry)": "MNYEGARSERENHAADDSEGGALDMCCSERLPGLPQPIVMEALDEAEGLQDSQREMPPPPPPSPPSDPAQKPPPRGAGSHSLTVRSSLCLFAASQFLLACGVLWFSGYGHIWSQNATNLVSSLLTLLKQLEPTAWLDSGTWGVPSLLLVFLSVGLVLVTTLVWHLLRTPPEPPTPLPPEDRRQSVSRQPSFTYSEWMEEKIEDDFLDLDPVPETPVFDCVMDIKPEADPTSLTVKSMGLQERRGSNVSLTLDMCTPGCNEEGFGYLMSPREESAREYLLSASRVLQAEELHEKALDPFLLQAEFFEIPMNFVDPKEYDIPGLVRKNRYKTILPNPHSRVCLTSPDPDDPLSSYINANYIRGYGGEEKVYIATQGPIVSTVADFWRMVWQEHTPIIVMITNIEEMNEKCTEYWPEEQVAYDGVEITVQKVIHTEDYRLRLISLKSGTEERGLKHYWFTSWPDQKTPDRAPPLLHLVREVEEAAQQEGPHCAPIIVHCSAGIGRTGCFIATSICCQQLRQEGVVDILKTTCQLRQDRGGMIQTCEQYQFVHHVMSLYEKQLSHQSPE", "assay": "PTPN5 enzyme inhibition – biochemical, fluorescence intensity, uHTS hits, confirmation (AID 602372)", "format": "functional", "conditions": "read-out: IC50_Mean"}, "[16]": {"assay": "Luminescence Cell-Based Dose Response HTS to Identify Activators of Luciferase Translation or Activity in H4 […] Cells. [Related pubchem assays: 1829 (Project Summary), 1814 (Primary HTS)]", "format": "functional"}, "[17]": {"assay": "Fluorescence-based cell-based high throughput dose response assay for inhibitors of the interaction of nucleotide-binding oligomerization domain containing 2 (NOD2) and the receptor-interacting serine-threonine kinase 2 (RIPK2).", "format": "functional", "conditions": "Homo sapiens"}, "[18]": {"molecular_target": "Heat shock protein HSP 90-alpha (Homo sapiens, UniProt P07900)", "format": "functional, organism-based"}, "H4": {"system": "H4", "assay": "Luminescence Cell-Based Dose Response HTS to Identify Activators of 5'UTR Stem-Loop Driven Prion Protein mRNA Translation in H4 Neuroglioblastoma Cells. [Related pubchem assays: 1829 (Project Summary), 1814 (Primary HTS)]", "format": "functional", "conditions": "Homo sapiens"}, "[19]": {"assay": "Luminescence Cell-Based Dose Confirmation HTS to Identify Activators of 5'UTR Stem-Loop Driven Alpha-Synuclein mRNA Translation in H4 Neuroglioblastoma Cells. [Related pubchem assays: 1829 (Project Summary), 1814 (Primary HTS)]", "format": "functional"}, "[20]": {"assay": "reduced cellular PGC1a acetyl-lysine signal – cell-based, cherry-picked samples, dose response (AID 720514);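 further: potency may reflect raised or lowered acetylation signal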", "format": "functional"}, "[21]": {"molecular_target": "T3, Sentrin-specific protease 8 (Homo sapiens, UniProt Q96LD8)", "T3 sequence (Q96LD8 whole entry)": "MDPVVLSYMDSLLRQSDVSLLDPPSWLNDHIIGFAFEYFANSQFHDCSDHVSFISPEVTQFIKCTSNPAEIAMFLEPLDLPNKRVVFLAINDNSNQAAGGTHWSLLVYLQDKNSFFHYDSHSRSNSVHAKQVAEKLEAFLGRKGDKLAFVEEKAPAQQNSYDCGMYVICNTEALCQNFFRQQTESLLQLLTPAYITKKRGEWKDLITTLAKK", "format": "functional"}, "[22]": {"molecular_target": "T3, Sentrin-specific protease 8", "format": "functional", "remark": "listed apart in the source"}, "Protein S100-A4": {"molecular_target": "Protein S100-A4 (Homo sapiens, UniProt P26447)", "sequence (P26447 whole entry)": "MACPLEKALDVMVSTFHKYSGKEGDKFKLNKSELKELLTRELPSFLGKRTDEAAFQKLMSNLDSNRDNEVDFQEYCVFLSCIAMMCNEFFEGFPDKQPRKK", "assay": "human S100A4 peptide interaction inhibition curves – biochemical, fluorescence polarization, cherry-picked hits, dose response (AID 687001)", "format": "functional"}}, "note": "Active and inactive are the calls of the source."}
{"smiles": "O=C(COc1ccc(Cl)cc1Cl)N1CCCN(C(=O)COc2ccc(Cl)cc2Cl)CC1", "values": [{"measurement": "AC50", "setting": "[1]", "value": "5.48 µM (active)"}, {"measurement": "AC50", "setting": "[2]", "value": "3.24 µM (active)"}, {"measurement": "EC50", "setting": "[3]", "value": "2.18 µM (active)"}, {"measurement": "AC50", "setting": "[4]", "value": "3.44 µM (active)"}, {"measurement": "AC50", "setting": "[5]", "value": "3.52 µM (active)"}, {"measurement": "AC50", "setting": "[6]", "value": "68.3 µM (active)"}, {"measurement": "EC50", "setting": "[7]", "value": "1.39 µM (active)"}, {"measurement": "EC50", "setting": "[8]", "value": "> 150 µM (inactive)"}, {"measurement": "EC50", "setting": "[9]", "value": "> 30 µM (not active)"}]}
{"smiles": "Cc1cccc(CS(=O)(=O)c2ncc(Cl)c(C(=O)Nc3c(C)cccc3C)n2)c1", "values": [{"measurement": "EC50", "setting": "Protein RecA", "value": "4.66 µM (active)"}, {"measurement": "AC50", "setting": "[10]", "value": "4.28 µM (active)"}, {"measurement": "AC50", "setting": "[11]", "value": "0.164 µM (active)"}, {"measurement": "EC50", "setting": "[12]", "value": "74.5 µM (active)"}]}
{"smiles": "O=C(NC1CCCCCC1)C(=S)NC1CCCCC1", "values": [{"measurement": "IC50", "setting": "[13]", "value": "3.07 µM (active)"}, {"measurement": "IC50", "setting": "[14]", "value": "9.88 µM (active)"}, {"measurement": "IC50", "setting": "[15]", "value": "56.9 µM (inactive)"}]}
{"smiles": "O=c1oc(-c2ccccc2)cc(Cl)c1Cl", "values": [{"measurement": "EC50", "setting": "[16]", "value": "> 120 µM (not active)"}, {"measurement": "EC50", "setting": "Protein RecA", "value": "4.74 µM (active)"}, {"measurement": "AC50", "setting": "[10]", "value": "10.5 µM (active)"}, {"measurement": "IC50", "setting": "[17]", "value": "1.15 µM (active)"}, {"measurement": "AC50", "setting": "[18]", "value": "2.64 µM (active)"}, {"measurement": "EC50", "setting": "H4", "value": "> 60 µM (not active)"}, {"measurement": "EC50", "setting": "[19]", "value": "> 120 µM (not active)"}, {"measurement": "AC50", "setting": "[20]", "value": "11.2 µM (active)"}]}
{"smiles": "COC(=O)CCCC1=CC2=CC(=O)C(C)(OC(=O)c3cccs3)C(=O)C2=CN1C1CCCC1", "note": "(configuration not stated)", "values": [{"measurement": "IC50", "setting": "[21]", "value": "5.99 µM (active)"}, {"measurement": "IC50", "setting": "[22]", "value": "7.97 µM (active)"}]}
{"smiles": "Cc1cc(C)c(S(=O)(=O)NCc2ccc3c(c2)cc(C)n3C)c(C)c1", "values": [{"measurement": "AC50", "setting": "Protein S100-A4", "value": "10.7 µM (active)"}]}
